{"source": "patent EP1982730A1", "about": "“Pharmaceutical composition comprising l-carnitine and an antagonist of the membrane adenosine receptors, derivatives and/or pharmaceutically acceptable salts thereof, and their use in the preparation of drugs with non-toxic effect to inhibit the proliferation of neoplastic cells” (Farmacetika Limited, priority 2007, dated 2008)", "key": {"[1]": {"test_system": "peripheral blood mononuclear cells (PBMC) from patients affected by chronic lymphocytic leukemia", "assay": "PHA-induced cell blast formation / proliferation (BrdU incorporation ELISA) in ex vivo PBMC cultures", "format": "cell-based, human", "settings": "for % reduction in cell blast formation: PBMC stimulated with PHA 20 ug/mL", "text": "The protocol for isolation and treatment of cells from patients affected by chronic lymphocytic leukemia comprised the following steps:\n• Blood sample taken between 8:00 and 9:30 a.m.; • Blood sample sent to the laboratory to be processed immediately; • Evaluation of the total volume of the blood received to proceed with 1:2 dilution with sterile saline solution; • Isolation of the mononuclear cells performed by layering of the blood on a Ficoll-Paque Plus density gradient at a ratio of 1:3, ensuring that the two phases remain separate; • Centrifugation for 40 minutes at 1800 rpm at room temperature; • Recovery of the PBMC layers in the interface between the Ficoll and the plasma; • Washing in saline solution to eliminate residual Ficoll centrifuging at 1200 rpm for 7 minutes at 4°C; • Washing in RPM1 1640 medium, centrifuging at 1200 rpm for 7 minutes at 4°C; • Pellet suspension in complete medium, i.e. RPM1 1640 with the addition of L-glutamine 4mM, penicillin at 50U/ml, streptomycin […] and with 10% of FBS (fetal bovine serum); • Preparation of a 10% cell suspension with Trypan Blue dye and counting of cells under the microscope with Burker camera; cell vitality is also checked using the dye exclusion test; • Counting of the total number of cells and adjustment of the cell concentration to the required value.\nThe cells thus isolated were cultured in the complete culture medium, and a culture was prepared placing 1 mL of cell suspension in a 5 mL polypropylene […] (Falcon) to study cytokine expression and production, and 100 microL in each microplate well. To induce cell blast formation, mitogen phytohemagglutinin (PHA) (20 ug/mL (Pharmacia) selective for T-lymphocytes was added.\nThe control culture was prepared without adding any mitogenic substance.\nThe substance to be tested, i.e. L-carnitine and L-carnitine + suramin, at the desired concentration, was added both to cultures with and to those without mitogen. The cultures were incubated in an incubator at 37°C, in a humidified environment with 5% carbon dioxide added.\nEvaluation of cell proliferation and therefore of DNA synthesis by isolated and cultured PBMC was performed after stimulation with mitogen and using the Biotrak ELISA system (Amersham Biosciences Europe GmbH, Milan, Italy), based on the measure of incorporation of 5-bromo-2-deoxyuridine (BrdU), pyrimidine analog, into the newly synthesized DNA. 18 hours before the end of incubation 10 microl of culture medium containing BrdU at a final concentration of 10 micromol/L were added to the cultures. At the end of incubation the culture medium was removed by centrifuging the plates at 300 rpm for 10 minutes. Subsequently, the plates were kept in an oven at 60°C for one hour. This was followed by two incubations of 30 minutes each, first in the presence of a fixative required for cell fixation and DNA denaturation, then in the presence of a blocking buffer. After addition of the anti-BrdU antibody, combined with the enzyme peroxidase, the plates were incubated for 90 minutes, after which three washes of 5 minutes each were performed, using PBS. The substrate used for the colorimetric reaction consisted of 3,3',5,5'-tetramethylbenzidine. The reaction was blocked after 15 minutes with H2SO4 1M and the optical density was measured at a wavelength of 450 nanometers, using a plate reader spectrophotometer. The PBMC proliferation values in the different wells were expressed as optical density from which the optical density recorded in the control wells without BrdU was subtracted."}, "[2]": {"test_system": "human peripheral blood mononuclear cells (PBMCs) in healthy volunteers", "settings": "lymphocytes from healthy volunteers stimulated with PHA; cited from earlier work"}}, "data": [{"compound": "C[N+](C)(C)C[C@H](O)CC(=O)[O-]", "note": "[Carnitine, L-carnitine]", "values": [{"measurement": "% reduction in cell blast formation", "setting": "[1]; Patient 1, I.S. 1.9", "value": 30, "unit": "%"}, {"measurement": "% reduction in cell blast formation", "setting": "[1]; Patient 2, I.S. 3.4", "value": 65, "unit": "%"}, {"measurement": "% reduction in cell blast formation", "setting": "[1]; Patient 3, I.S. 4.4", "value": 40, "unit": "%"}, {"measurement": "% reduction in cell blast formation", "setting": "[1]; Patient 4, I.S. 1.6", "value": 24.4, "unit": "%"}, {"measurement": "% reduction in cell blast formation", "setting": "[1]; Patient 5, I.S. 2.3", "value": 16.5, "unit": "%"}, {"measurement": "proliferation induced with PHA", "setting": "[1]; all patients, summary in words", "value": "reduces the proliferation induced with PHA in all patients"}, {"measurement": "blastogenesis of T lymphocytes caused by phytohemagglutinin (PHA)", "setting": "[2]", "value": "inhibits, in a dose-dependent manner"}]}]}
